Reference: patent US8617524B2, “Depigmenting keratin materials utilizing dithiolane compounds” (L'Oreal, priority 2008, dated 2013)

Assays:
[1] = tested on: co-culture of keratinocytes and melanocytes; experiment: Activity on constitutive melanogenesis (inhibition of melanin synthesis; thiouracil/leucine incorporation ratio); assay type: cell-based; details: for Maximum Activity: inhibitory activity on melanin synthesis, ratio of incorporation of thiouracil to leucine, relative to 100% of the control without test compound
Protocol: (§1) The modulatory effect of the compounds on constitutive melanogenesis was measured according to the method described in FR-A-2,734,825 and also in the article by Schmidt et al., Anal. Biochem., 235(2), 1996, pp. 113-118. This test is performed on a co-culture of keratinocytes and melanocytes.
For the test compounds, the inhibitory activity on melanin synthesis was determined, by estimating the ratio of incorporation of thiouracil to the incorporation of leucine, relative to 100% of the control (the control corresponds to the test performed without test compound).

[2] = tested on: co-culture of keratinocytes and melanocytes; experiment: Cytotoxicity on a co-culture; assay type: cell-based
Protocol: as §1

O=c1cc(CO)occ1O [Kojic acid]
Maximum Activity [1]: −30%
Cytotoxicity on a co-culture [2]: 100 µM

CC1(C(N)=O)CSSC1 [Compound 2, 4-methyl-1,2-dithiolane-4-carboxamide]
depigmenting action compared with arbutin and kojic acid ([1]; conclusion in words from the table of Example 25): greater depigmenting action than arbutin and kojic acid
Maximum Activity [1]: −76%
Cytotoxicity on a co-culture [2]: 100 µM

OC[C@H]1O[C@@H](Oc2ccc(O)cc2)[C@H](O)[C@@H](O)[C@@H]1O [Arbutin]
Maximum Activity [1]: −44%
Cytotoxicity on a co-culture [2]: Non-cytotoxic
